Measured values from ChEMBL document CHEMBL1143119, “Novel methylene-linked heterocyclic EP1 receptor antagonists” (Bioorg Med Chem Lett, 2008).

Experiments:
[1] = Distribution coefficient, log D at pH 7.8; format: physicochemical; conditions: octanol/water
[2] = molecular target: T1, Prostaglandin E2 receptor EP1 subtype (Homo sapiens, UniProt P34995); assay: Displacement of [3H]PGE2 from EP1 receptor
T1 sequence (P34995 whole entry): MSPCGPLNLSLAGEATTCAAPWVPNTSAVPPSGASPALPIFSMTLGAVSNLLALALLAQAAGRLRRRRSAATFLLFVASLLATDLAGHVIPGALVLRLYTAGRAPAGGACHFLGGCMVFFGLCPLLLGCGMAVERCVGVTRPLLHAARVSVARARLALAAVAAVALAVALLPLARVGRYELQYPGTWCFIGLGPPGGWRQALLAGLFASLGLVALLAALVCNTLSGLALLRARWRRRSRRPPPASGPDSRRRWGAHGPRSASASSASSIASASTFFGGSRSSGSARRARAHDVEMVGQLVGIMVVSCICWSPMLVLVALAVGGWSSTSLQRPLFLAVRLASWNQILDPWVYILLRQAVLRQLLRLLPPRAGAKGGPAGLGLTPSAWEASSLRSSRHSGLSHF

[3] = molecular target: T1, Prostaglandin E2 receptor EP1 subtype; assay: Antagonist activity at EP1 receptor by FLIPR assay; format: functional

SMILES	logD [1]	IC50 [2]	Ki [3]
CC(C)COc1ccc(Cl)cc1Cc1nc(C(=O)O)cs1		7.94 nM	
O=C(O)c1coc(Cc2cc(Cl)ccc2OCc2ccccc2)n1	0.5	20 nM	1.58 nM
O=C(O)c1ccnc(Cc2cc(Cl)ccc2OCc2ccccc2)c1	1.1	> 1000 nM	
O=C(O)Cc1csc(Cc2cc(Cl)ccc2OCc2ccccc2)n1		> 1000 nM	
Cc1cc(CC(=O)O)nn1-c1cc(Cl)ccc1OCc1ccccc1		> 1000 nM	
O=C(O)c1csc(-c2cc(Cl)ccc2OCc2ccccc2)n1		631 nM	
Cc1cc(C(=O)O)nn1Cc1cc(Cl)ccc1OCC(C)C		10 nM	0.794 nM
Cc1ccc(-c2cc(Cl)ccc2OCc2ccccc2)n1-c1cccc(C(=O)O)c1	2.5		
CC(C)COc1ccc(Cl)cc1Cc1cccc(C(=O)O)n1		39.8 nM	158 nM
Cc1cc(C(=O)O)cn1Cc1cc(Cl)ccc1OCc1ccccc1	3	158 nM	
O=C(O)Cc1csc(-c2cc(Cl)ccc2OCc2ccccc2)n1		50.1 nM	
Cc1cc(C(=O)O)oc1Cc1cc(Cl)ccc1OCc1ccccc1	1.8	10 nM	2 nM
O=C(O)c1c[nH]c(Cc2cc(Cl)ccc2OCc2ccccc2)n1	0.6	> 1000 nM	

Next, values leading:

logD [1]	IC50 [2]	Ki [3]	SMILES
3			O=C(O)c1cccc(C2=C(c3cc(Cl)ccc3OCc3ccccc3)CCC2)c1
3.1			Cc1ccc(-c2cc(Cl)ccc2OCC(C)C)n1-c1cccc(C(=O)O)c1
1.2	6.31 nM		Cc1cc(C(=O)O)nn1Cc1cc(Br)ccc1OCc1ccccc1
1.2	6.31 nM		O=C(O)c1csc(Cc2cc(Cl)ccc2OCc2ccccc2)n1
2.8	39.8 nM		O=C(O)c1csc(Cc2cc(Cl)ccc2OCc2ccccc2)c1
0.9	631 nM		O=C(O)c1cnc(Cc2cc(Cl)ccc2OCc2ccccc2)s1
1.1	25.1 nM		O=C(O)c1nc(Cc2cc(Cl)ccc2OCc2ccccc2)cs1
1.4	631 nM		O=C(O)c1cncc(Cc2cc(Cl)ccc2OCc2ccccc2)c1
2.2	158 nM		O=C(O)c1cccc(Cc2cc(Cl)ccc2OCc2ccccc2)n1
1.5	6.31 nM	2 nM	O=C(O)c1ccc(Cc2cc(Cl)ccc2OCc2ccccc2)o1
	794 nM		O=C(O)c1cccc(Oc2cc(Cl)ccc2OCc2ccccc2)n1
	25.1 nM		O=C(O)c1csc(Nc2cc(Cl)ccc2OCc2ccccc2)n1
	3.16 nM	0.316 nM	CC(C)COc1ccc(Cl)cc1Cc1ccc(C(=O)O)o1
0.7	79.4 nM		O=C(O)c1ccn(Cc2cc(Cl)ccc2OCc2ccccc2)n1
	> 1000 nM		O=C(O)c1cccc(Nc2ccccc2OCc2ccccc2)n1
3	316 nM		O=C(O)c1cccc(Cc2cc(Cl)ccc2OCc2ccccc2)c1
1	10 nM		Cc1cc(C(=O)O)nn1Cc1cc(Cl)ccc1OCc1ccccc1
2.3	50.1 nM	15.8 nM	O=C(O)c1ccc(Cc2cc(Cl)ccc2OCc2ccccc2)s1
0.7	316 nM		Cn1cc(C(=O)O)nc1Cc1cc(Cl)ccc1OCc1ccccc1
0.7	> 1000 nM		Cn1c(C(=O)O)cnc1Cc1cc(Cl)ccc1OCc1ccccc1
